This note sets out measurements from patent US20070249670A1, “Glycogen Phosphorylase Inhibitor Compounds and Pharmaceutical Compositions Thereof” (SMITHKLINE BEECHAM CORPORATION, priority 2004, published 2007).

Broadly, the IC50 is the concentration needed to halve the response being measured.

This assay concerns the target T1, human liver glycogen phosphorylase a (HLGPa) (Homo sapiens, UniProt P06737).
T1 construct: creating a full-length cDNA fused at the 5′ end to codons for methionine-glycine-alanine-histidine; 6xHis tag (leader Met-Gly-Ala-His6-Gly-Gly) (N); made in house; host or cells: E. coli (bacterial expression plasmid pTXK1007LTev)
T1 sequence (P06737 2-847 limits assumed): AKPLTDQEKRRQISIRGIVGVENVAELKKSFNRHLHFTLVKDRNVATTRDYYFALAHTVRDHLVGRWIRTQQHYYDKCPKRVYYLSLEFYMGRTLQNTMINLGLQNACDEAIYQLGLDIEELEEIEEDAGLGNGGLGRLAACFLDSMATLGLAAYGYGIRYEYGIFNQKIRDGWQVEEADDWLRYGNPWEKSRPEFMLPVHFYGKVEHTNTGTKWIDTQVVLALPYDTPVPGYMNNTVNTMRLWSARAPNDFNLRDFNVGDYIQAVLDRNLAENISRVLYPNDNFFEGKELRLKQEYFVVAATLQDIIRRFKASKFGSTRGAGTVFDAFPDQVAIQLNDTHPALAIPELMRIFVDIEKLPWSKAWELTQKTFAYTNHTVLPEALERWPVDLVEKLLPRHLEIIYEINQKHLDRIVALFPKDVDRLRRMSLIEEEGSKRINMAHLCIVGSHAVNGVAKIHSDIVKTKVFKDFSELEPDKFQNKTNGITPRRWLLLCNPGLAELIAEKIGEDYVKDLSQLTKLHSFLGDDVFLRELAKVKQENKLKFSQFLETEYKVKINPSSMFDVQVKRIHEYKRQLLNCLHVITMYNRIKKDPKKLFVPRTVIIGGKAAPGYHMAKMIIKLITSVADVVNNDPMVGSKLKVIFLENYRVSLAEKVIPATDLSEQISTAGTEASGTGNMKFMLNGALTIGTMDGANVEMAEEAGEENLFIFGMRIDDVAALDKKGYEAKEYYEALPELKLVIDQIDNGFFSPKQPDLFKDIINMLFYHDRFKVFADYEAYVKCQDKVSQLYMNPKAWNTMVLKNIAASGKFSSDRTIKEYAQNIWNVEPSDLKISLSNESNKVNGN
Nature of the assay: Human liver glycogen phosphorylase a enzymatic activity assay (coupled, fluorescent resorufin readout, with and without 10 mM glucose). The class given is biochemical. Particulars: human liver glycogen phosphorylase a enzymatic activity assay.

Turning to `Cc1cccc(Cl)c1NC(=O)Nc1cc2ccccc2cc1C(=O)N[C@@H](CC(=O)O)C(=O)O` [Example 84, N-[3-({[(2-chloro-6-methylphenyl)amino]carbonyl}amino)-2-naphthoyl]-L-aspartic acid], the IC50 is 0.39 µM.

On to `Cc1cccc(Cl)c1NC(=O)Nc1cc2ccccc2cc1C(=O)NCC(=O)O` [Example 85, N-[3-({[(2-chloro-6-methylphenyl)amino]carbonyl}amino)-2-naphthoyl]glycine], for which the IC50 is 0.57 µM.

`Cc1cccc(Cl)c1NC(=O)Nc1cc2ccccc2cc1C(=O)N[C@@H](CCC(=O)O)C(=O)O` [Example 86, N-[3-({[(2-chloro-6-methylphenyl)amino]carbonyl}amino)-2-naphthoyl]-L-glutamic acid] yielded an IC50 of 0.7 µM.

`Cc1cccc(Cl)c1NC(=O)Nc1ccccc1C(=O)N[C@@H](CC(=O)O)C(=O)O` [Example 87, N-[2-({[(2-chloro-6-methylphenyl)amino]carbonyl}amino)benzoyl]-L-aspartic acid] had an IC50 of 24.5 µM.

`Cc1cccc(Cl)c1NC(=O)Nc1cc(Cl)ccc1C(=O)N[C@@H](CC(=O)O)C(=O)O` [Example 88, N-[4-chloro-2-({[(2-chloro-6-methylphenyl)amino]carbonyl}amino)benzoyl]-L-aspartic acid] came in with an IC50 of 5.2 µM.

Take `Cc1cccc(Cl)c1NC(=O)Nc1ccc(I)cc1C(=O)N[C@@H](CC(=O)O)C(=O)O` [Example 89, N-[2-({[(2-chloro-6-methylphenyl)amino]carbonyl}amino)-5-iodobenzoyl]-L-aspartic acid]: it took 17.4 µM to reach half-maximal inhibition (IC50).

`O=C(O)C[C@H](NC(=O)c1cc2ccccc2cc1NC(=O)Nc1ccccc1Br)C(=O)O` [Example 90, N-[3-({[(2-bromophenyl)amino]carbonyl}amino)-2-naphthoyl]-L-aspartic acid] had an IC50 of 22.9 µM.

Turning to `Cc1cccc(Cl)c1NC(=O)Nc1cc2ccccc2cc1C(=O)N[C@@H](Cc1ccc(Br)cc1)C(=O)O` [Example 91, 4-bromo-N-[3-({[(2-chloro-6-methylphenyl)amino]carbonyl}amino)-2-naphthoyl]-L-phenylalanine], 7.88 µM corresponded to half-maximal inhibition (IC50).

Compound `CCc1cccc(CC)c1NC(=O)Nc1cc2ccccc2cc1C(=O)N[C@H](C(=O)O)C1CCCCC1` [Example 93, (2S)-cyclohexyl({[3-({[(2,6-diethylphenyl)amino]carbonyl}amino)-2-naphthalenyl]carbonyl}amino)ethanoic acid] gave an IC50 of 0.59 µM.

`Cc1cccc(C)c1NC(=O)Nc1ccccc1C(=O)N[C@H](C(=O)O)C1CCCCC1` [Example 94, (2S)-cyclohexyl{[2-({[(2,6-dimethylphenyl)amino]carbonyl}amino)benzoyl]amino}acetic acid]: the IC50 amounted to 0.53 µM.

`Cc1ccccc1NC(=O)Nc1cc2ccccc2cc1C(=O)NC(C(=O)O)c1ccccc1` (stereo not drawn) [Example 95, {[3-({[(2-methylphenyl)amino]carbonyl}amino)-2-naphthoyl]amino}(phenyl)acetic acid] showed an IC50 of 9.89 µM.

In turn, `Cc1ccccc1NC(=O)Nc1cc2ccccc2cc1C(=O)N[C@@H](Cc1cccs1)C(=O)O` [Example 96, N-{[3-({[(2-methylphenyl)amino]carbonyl}amino)-2-naphthalenyl]carbonyl}-3-(2-thienyl)-L-alanine] yielded an IC50 of 5.07 µM.

For the compound `Cc1cccc(C)c1NC(=O)Nc1cc2ccccc2cc1C(=O)NC(C(=O)O)c1ccccc1` (stereo not drawn) [Example 97, {[3-({[(2,6-dimethylphenyl)amino]carbonyl}amino)-2-naphthoyl]amino}(phenyl)acetic acid], the IC50 was 0.66 µM.

For the compound `Cc1cccc(C)c1NC(=O)Nc1cc2ccccc2cc1C(=O)N[C@@H](Cc1cccs1)C(=O)O` [Example 98, N-{[3-({[(2,6-dimethylphenyl)amino]carbonyl}amino)-2-naphthalenyl]carbonyl}-3-(2-thienyl)-L-alanine], inhibition was half-maximal at 0.54 µM (IC50).

Consider `Cc1cccc(C)c1NC(=O)Nc1cc2ccccc2cc1C(=O)N[C@@H](CC1CCCCC1)C(=O)O` [Example 99, 3-cyclohexyl-N-[3-({[(2,6-dimethylphenyl)amino]carbonyl}amino)-2-naphthoyl]-L-alanine], for which the IC50 was 0.49 µM.

As to `O=C(Nc1ccccc1Cl)Nc1cc2ccccc2cc1C(=O)NC(C(=O)O)c1ccccc1` (stereo not drawn) [Example 100, {[3-({[(2-chlorophenyl)amino]carbonyl}amino)-2-naphthoyl]amino}(phenyl)acetic acid], the IC50 is 7.63 µM.

Take `O=C(Nc1ccccc1Cl)Nc1cc2ccccc2cc1C(=O)N[C@@H](Cc1cccs1)C(=O)O` [Example 101, N-{[3-({[(2-chlorophenyl)amino]carbonyl}amino)-2-naphthalenyl]carbonyl}-3-(2-thienyl)-L-alanine]: the IC50 was determined as 2.78 µM.

As to `Cc1cccc(Cl)c1NC(=O)Nc1cc2ccccc2cc1C(=O)N[C@@H](Cc1cccs1)C(=O)O` [Example 102, N-{[3-({[(2-chloro-6-methylphenyl)amino]carbonyl}amino)-2-naphthalenyl]carbonyl}-3-(2-thienyl)-L-alanine], half-maximal inhibition (IC50) was put at 0.36 µM.

In turn, `Cc1cc(C)c(NC(=O)Nc2cc3ccccc3cc2C(=O)NC(C(=O)O)c2ccccc2)c(C)c1` (stereo not drawn) [Example 103, Phenyl({[3-({[(2,4,6-trimethylphenyl)amino]carbonyl}amino)-2-naphthalenyl]carbonyl}amino)acetic acid] registered an IC50 of 0.06 µM.

The compound `Cc1cccc(C(C)C)c1NC(=O)Nc1cc2ccccc2cc1C(=O)NC(C(=O)O)c1ccccc1` (stereo not drawn) [Example 104, {[3-({[(2-isopropyl-6-methylphenyl)amino]carbonyl}amino)-2-naphthoyl]amino}(phenyl)acetic acid] registered an IC50 of 1.04 µM.

Consider `COc1cc(NC(=O)Nc2c(C)cccc2C)c(C(=O)NC(C(=O)O)c2ccccc2)cc1OC` (stereo not drawn) [Example 105, {[2-({[(2,6-dimethylphenyl)amino]carbonyl}amino)-4,5-dimethoxybenzoyl]amino}(phenyl)acetic acid], for which the IC50 worked out at 19.6 µM.

Regarding `COc1cc(NC(=O)Nc2c(C)cc(C)cc2C)c(C(=O)NC(C(=O)O)c2ccccc2)cc1OC` (stereo not drawn) [Example 106, [(2-{[(mesitylamino)carbonyl]amino}-4,5-dimethoxybenzoyl)amino](phenyl)acetic acid], half-maximal inhibition (IC50) was put at 4.23 µM.

`COc1cc(NC(=O)Nc2c(C)cccc2Cl)c(C(=O)NC(C(=O)O)c2ccccc2)cc1OC` (stereo not drawn) [Example 107, {[2-({[(2-chloro-6-methylphenyl)amino]carbonyl}amino)-4,5-dimethoxybenzoyl]amino}(phenyl)acetic acid] yielded an IC50 of 12.2 µM.

Compound `Cc1cccc(C(C)C)c1NC(=O)Nc1cc2ccccc2cc1C(=O)N[C@@H](C(=O)O)C1CCCCC1` [Example 109, (2R)-cyclohexyl{[3-({[(2-isopropyl-6-methylphenyl)amino]carbonyl}amino)-2-naphthoyl]amino}acetic acid] gave an IC50 of 19.8 µM.

Compound `Cc1cccc(Cl)c1NC(=O)Nc1cc(F)c(F)cc1C(=O)N[C@H](C(=O)O)C1CCCCC1` [Example 112, (2S)-{[2-({[(2-chloro-6-methylphenyl)amino]carbonyl}amino)-4,5-difluorobenzoyl]amino}(cyclohexyl)acetic acid] gave an IC50 of 0.86 µM.

In turn, `COc1cc(NC(=O)Nc2c(C)cccc2Cl)c(C(=O)N[C@H](C(=O)O)C2CCCCC2)cc1OC` [Example 113, (2S)-{[2-({[(2-chloro-6-methylphenyl)amino]carbonyl}amino)-4,5-dimethoxybenzoyl]amino}(cyclohexyl)acetic acid] gave an IC50 of 7.04 µM.

For `Cc1cccc(Cl)c1NC(=O)Nc1cc(F)c(F)cc1C(=O)N[C@@H](CC1CCCCC1)C(=O)O` [Example 114, N-[2-({[(2-chloro-6-methylphenyl)amino]carbonyl}amino)-4,5-difluorobenzoyl]-3-cyclohexyl-L-alanine], half-maximal inhibition (IC50) required 18.7 µM.

For the compound `COc1cc(NC(=O)Nc2c(C)cccc2Cl)c(C(=O)N[C@@H](CC2CCCCC2)C(=O)O)cc1OC` [Example 115, N-[2-({[(2-chloro-6-methylphenyl)amino]carbonyl}amino)-4,5-dimethoxybenzoyl]-3-cyclohexyl-L-alanine], 13 µM corresponded to half-maximal inhibition (IC50).

In the case of `Cc1cccc(C)c1NC(=O)Nc1cc(F)c(F)cc1C(=O)N[C@H](C(=O)O)C1CCCCC1` [Example 116, (2S)-cyclohexyl{[2-({[(2,6-dimethylphenyl)amino]carbonyl}amino)-4,5-difluorobenzoyl]amino}acetic acid], the IC50 turned out to be 1.63 µM.

Compound `COc1cc(NC(=O)Nc2c(C)cccc2C)c(C(=O)N[C@H](C(=O)O)C2CCCCC2)cc1OC` [Example 117, (2S)-cyclohexyl{[2-({[(2,6-dimethylphenyl)amino]carbonyl}amino)-4,5-dimethoxybenzoyl]amino}acetic acid] yielded an IC50 of 14.7 µM.
